# Assays:
# [1] = system: bortezomib-resistant THP-1 cell line (BTZ500); experiment: Cell viability, bortezomib-resistant THP-1 cell line; format: cell-based, human
# [2] = system: proteasome; details: read-out: reported IC50 for proteasome inhibition; cited from earlier work
# [3] = conversion to inactive aromatic imidazole 5; ref 13b; cited from earlier work
# [4] = target: purified human 20S proteasome (Homo sapiens, UniProt P28074); experiment: Inhibition of the chymotryptic-like activity of purified human 20S proteasome; format: biochemical
# [5] = system: NF-κB mediated gene transcription; details: read-out: NF-κB-luc IC50; Table 1; cell culture, previously reported; cited from earlier work
# [6] = system: human myelomonocytic THP-1 cells; experiment: Cell viability, THP-1 wild type cells, 72 hours; format: cell-based; details: screened at 10 μM and 5 μM
smiles,measurement,setting,value
"CC(C)C[C@H](NC(=O)[C@H](Cc1ccccc1)NC(=O)c1cnccn1)B(O)O [Bortezomib, bortezomib, reference compound]",% cell viability Resistant,"[1]; BTZ500, bortezomib at 0.5 μM, 72 hours",unable to induce significant cytotoxicity
c1ccc(CN2C(c3ccccc3)=N[C@H](c3ccccc3)[C@H]2c2ccccc2)cc1 [compound 2],stability upon standing,[3],slowly isomerised and dehydrogenated
c1ccc(CN2C(c3ccccc3)=N[C@@H](c3ccccc3)[C@H]2c2ccccc2)cc1 [compound 3],proteasome inhibitory activity (in words),[4],depleted of activity
same,stability upon standing,[3],slowly isomerised and dehydrogenated
same,IC50,[5],> 10000 nM
c1ccc(CN2CCN=C2c2ccccc2)cc1 [compound 4],proteasome inhibitory activity (in words),[4],depleted of activity
same,IC50,[5],> 10000 nM
c1ccc(Cn2c(-c3ccccc3)nc(-c3ccccc3)c2-c2ccccc2)cc1 [compound 5],proteasome inhibitory activity (in words),[4],depleted of activity
same,IC50,[5],> 10000 nM
CCOC(=O)[C@]1(c2ccccc2)N=C(c2ccccc2)N[C@@H]1c1ccccc1 [compound 11],proteasome inhibitory activity (in words),[4],depleted of all activity
CCOC(=O)[C@]1(c2ccccc2)N=C(c2ccccc2)N(C(C)=O)[C@@H]1c1ccccc1 [compound 12],proteasome inhibitory activity (in words),[4],depleted of activity
CCOC(=O)[C@]1(c2ccccc2)N=C(c2ccccc2)N(C(=O)c2ccccc2)[C@@H]1c1ccccc1 [compound 13],proteasome inhibitory activity (in words),[4],depleted of activity
CCOC(=O)[C@]1(c2ccccc2)N=C(c2ccccc2)N(S(=O)(=O)c2ccc(C)cc2)[C@@H]1c1ccccc1 [compound 14],proteasome inhibitory activity (in words),[4],depleted of activity
CCOC(=O)[C@]1(c2ccccc2)N=C(c2ccccc2)N(Cc2ccccc2)[C@@H]1c1ccncc1 [compound 20],proteasome inhibitory activity (in words),[4],inactive
CCOC(=O)[C@]1(c2ccccc2)N=C(c2ccccc2)N(Cc2ccccc2)[C@@H]1c1ccc(NCc2ccccc2)cc1 [compound 29],IC50,[4]; IC50 proteasome inhibition,500 nM
CCOC(=O)[C@]1(c2ccccc2)N=C(c2ccc(OC)cc2)N(Cc2ccccc2)[C@@H]1c1ccc(N)cc1 [compound 37],"cytotoxic activity (in words), bortezomib-resistant BTZ500",[1]; screened at 10 μM and 5 μM,weak cytotoxic activity
same,"cytotoxic activity (in words), THP-1 wild type",[6],weak cytotoxic activity
